Test results reported in patent publication US11702404B2, “GLP-1R modulating compounds” (priority 2019, dated 2023).

Experiments:
GLP-1R = GLP-1R (Homo sapiens, UniProt P43220); assay: GLP-1R activation: cAMP increase in CHO cells stably expressing GLP-1R; format: cell-based; conditions: cAMP increase, CHO cells stably expressing GLP-1R, 10 point dose response, 30 minutes incubation; read-out: EC50
[1] = Microsomal stability, human liver microsomes (predicted hepatic clearance); conditions: predicted from in vitro microsomal stability data

Sequence of GLP-1R (P43220 24-463): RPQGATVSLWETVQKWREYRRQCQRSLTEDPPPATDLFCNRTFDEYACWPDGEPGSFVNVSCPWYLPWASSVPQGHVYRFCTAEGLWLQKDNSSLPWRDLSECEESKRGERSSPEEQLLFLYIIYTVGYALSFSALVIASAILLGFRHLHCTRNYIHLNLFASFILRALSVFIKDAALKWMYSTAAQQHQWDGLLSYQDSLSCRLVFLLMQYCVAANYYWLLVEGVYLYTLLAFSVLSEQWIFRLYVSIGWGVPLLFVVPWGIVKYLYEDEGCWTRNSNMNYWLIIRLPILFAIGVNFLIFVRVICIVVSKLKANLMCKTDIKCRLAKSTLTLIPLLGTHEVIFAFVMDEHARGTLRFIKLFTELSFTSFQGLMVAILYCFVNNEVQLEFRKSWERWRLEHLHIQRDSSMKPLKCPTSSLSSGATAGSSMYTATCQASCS

EC50 (GLP-1R) [nM] | Predicted Hepatic Clearance (Pred. Cl.) [1] [mL/min/kg] | Structure (SMILES)
1.45 | <1.83 | O=C(O)c1ccc2nc(Cc3ccc(-c4cccc(OCc5ccc(Cl)cc5F)n4)cc3F)n(CC3(CF)CC3)c2c1 [Example 352, 2-(4-(6-((4-chloro-2-fluorobenzyl)oxy)pyridin-2-yl)-2-fluorobenzyl)-1-((1-(fluoromethyl)cyclopropyl)methyl)-1H-benzo[d]imidazole-6-carboxylic acid]
1.67 | <1.83 | N#CCC1(Cn2c(Cc3ccc(-c4ccnc(OCc5ccc(C#N)cc5F)n4)cc3F)nc3ccc(C(=O)O)cc32)CC1 [Example 353, 2-(4-(2-((4-cyano-2-fluorobenzyl)oxy)pyrimidin-4-yl)-2-fluorobenzyl)-1-((1-(cyanomethyl)cyclopropyl)methyl)-1H-benzo[d]imidazole-6-carboxylic acid]
0.97 | 3.3 | N#Cc1ccc(COc2cccc(-c3ccc(Cc4nc5ccc(C(=O)O)nc5n4CC4(CF)CC4)c(F)c3)n2)c(F)c1 [Example 355, 2-(4-(6-((4-cyano-2-fluorobenzyl)oxy)pyridin-2-yl)-2-fluorobenzyl)-3-((1-(fluoromethyl)cyclopropyl)methyl)-3H-imidazo[4,5-b]pyridine-5-carboxylic acid]
3.09 | <1.83 | N#Cc1ccc(COc2nccc(-c3ccc(Cc4nc5ccc(C(=O)O)nc5n4CC4(CF)CC4)c(F)c3)n2)c(F)c1 [Example 359, 2-(4-(2-((4-cyano-2-fluorobenzyl)oxy)pyrimidin-4-yl)-2-fluorobenzyl)-3-((1-(fluoromethyl)cyclopropyl)methyl)-3H-imidazo[4,5-b]pyridine-5-carboxylic acid]
0.74 | 2.83 | N#Cc1ccc(COc2cccc(-c3ccc(Cc4nc5c(F)cc(C(=O)O)cc5n4CC4(CF)CC4)c(F)c3)n2)c(F)c1 [Example 361, 2-(4-(6-((4-cyano-2-fluorobenzyl)oxy)pyridin-2-yl)-2-fluorobenzyl)-4-fluoro-1-((1-(fluoromethyl)cyclopropyl)methyl)-1H-benzo[d]imidazole-6-carboxylic acid]
1.76 | 3.83 | COCCn1c(Cc2ccc(-c3cccc(OCc4ccc(C#N)cc4F)n3)cc2F)nc2ccc(C(=O)O)c(F)c21 [Example 364, 2-(4-(6-((4-cyano-2-fluorobenzyl)oxy)pyridin-2-yl)-2-fluorobenzyl)-7-fluoro-1-(2-methoxyethyl)-1H-benzo[d]imidazole-6-carboxylic acid]

Second part, the molecule before the results:

Structure (SMILES) | EC50 (GLP-1R) [nM] | Predicted Hepatic Clearance (Pred. Cl.) [1] [mL/min/kg]
CC(C)n1c(Cc2ccc(-c3cccc(OCc4ccc(C#N)cc4F)n3)cc2F)nc2ccc(C(=O)O)cc21 [Example 347, 2-(4-(6-((4-cyano-2-fluorobenzyl)oxy)pyridin-2-yl)-2-fluorobenzyl)-1-isopropyl-1H-benzo[d]imidazole-6-carboxylic acid] | 92.6 | 5.5
COCCn1c(Cc2ccc(-c3cccc(OCc4cccc5c4OCCO5)n3)cc2F)nc2ccc(C(=O)O)cc21 [Example 348, 2-(4-(6-((2,3-dihydrobenzo[b][1,4]dioxin-5-yl)methoxy)pyridin-2-yl)-2-fluorobenzyl)-1-(2-methoxyethyl)-1H-benzo[d]imidazole-6-carboxylic acid] | 48.1 | 9.5
COCCn1c(Cc2cc(F)c(-c3ccnc(OCc4ccc(C#N)cc4F)n3)cc2F)nc2ccc(C(=O)O)cc21 [Example 349, 2-(4-(2-((4-cyano-2-fluorobenzyl)oxy)pyrimidin-4-yl)-2,5-difluorobenzyl)-1-(2-methoxyethyl)-1H-benzo[d]imidazole-6-carboxylic acid] | 3.05 | <1.83
N#Cc1ccc(COc2nccc(-c3ccc(Cc4nc5ccc(C(=O)O)cc5n4CC4(CF)CC4)cc3F)n2)c(F)c1 [Example 350, 2-(4-(2-((4-cyano-2-fluorobenzyl)oxy)pyrimidin-4-yl)-3-fluorobenzyl)-1-((1-(fluoromethyl)cyclopropyl)methyl)-1H-benzo[d]imidazole-6-carboxylic acid] | 0.79 | 6.33
N#Cc1ccc(COc2nccc(-c3ccc(Cc4nc5ccc(C(=O)O)cc5n4C[C@@H]4CCO4)c(F)c3)n2)c(F)c1 [Example 351, (S)-2-(4-(2-((4-cyano-2-fluorobenzyl)oxy)pyrimidin-4-yl)-2-fluorobenzyl)-1-(oxetan-2-ylmethyl)-1H-benzo[d]imidazole-6-carboxylic acid] | 0.96 | 2
Cn1c(Cc2ccc(-c3cccc(OCc4ccc(C#N)cc4F)n3)cc2F)nc2ccc(C(=O)O)cc21 [Example 354, 2-(4-(6-((4-cyano-2-fluorobenzyl)oxy)pyridin-2-yl)-2-fluorobenzyl)-1-methyl-1H-benzo[d]imidazole-6-carboxylic acid] | 146 | 7.5
N#Cc1ccc(COc2cccc(-c3ccc(Cc4nc5ccc(C(=O)O)cc5n4C4CC4)c(F)c3)n2)c(F)c1 [Example 356, 2-(4-(6-((4-cyano-2-fluorobenzyl)oxy)pyridin-2-yl)-2-fluorobenzyl)-1-cyclopropyl-1H-benzo[d]imidazole-6-carboxylic acid] | 48.7 | 7.17
COCCn1c(Cc2ccc(-c3cccc(OCc4ccc(C#N)c5ccccc45)n3)cc2F)nc2ccc(C(=O)O)cc21 [Example 357, 2-(4-(6-((4-cyanonaphthalen-1-yl)methoxy)pyridin-2-yl)-2-fluorobenzyl)-1-(2-methoxyethyl)-1H-benzo[d]imidazole-6-carboxylic acid] | 56.2 | <1.83
COCCn1c(Cc2ccc(-c3nc(OCc4ccc(C#N)cc4F)ncc3F)cc2F)nc2ccc(C(=O)O)cc21 [Example 358, 2-(4-(2-((4-cyano-2-fluorobenzyl)oxy)-5-fluoropyrimidin-4-yl)-2-fluorobenzyl)-1-(2-methoxyethyl)-1H-benzo[d]imidazole-6-carboxylic] | 33.1 | 6.5
N#Cc1ccc(COc2nccc(-c3ccc(Cc4nc5c(F)cc(C(=O)O)cc5n4CC4(CF)CC4)c(F)c3)n2)c(F)c1 [Example 360, 2-(4-(2-((4-cyano-2-fluorobenzyl)oxy)pyrimidin-4-yl)-2-fluorobenzyl)-4-fluoro-1-((1-(fluoromethyl)cyclopropyl)methyl)-1H-benzo[d]imidazole-6-carboxylic acid] | 0.94 | <1.83
COCCn1c(Cc2ccc(-c3cccc(OCc4cccc5c4OCO5)n3)cc2F)nc2ccc(C(=O)O)cc21 [Example 362, 2-(4-(6-(benzo[d][1,3]dioxol-4-ylmethoxy)pyridin-2-yl)-2-fluorobenzyl)-1-(2-methoxyethyl)-1H-benzo[d]imidazole-6-carboxylic acid] | 21.8 | 16.2
COCCn1c(Cc2ccc(-c3cccc(OCc4ccc(C#N)c(F)c4OC)n3)cc2F)nc2ccc(C(=O)O)cc21 [Example 363, 2-(4-(6-((4-cyano-3-fluoro-2-methoxybenzyl)oxy)pyridin-2-yl)-2-fluorobenzyl)-1-(2-methoxyethyl)-1H-benzo[d]imidazole-6-carboxylic acid] | 8.96 | 7.75
